Measurements from patent US20060281798A1, “Methods of using thiazolidinedithione derivatives” (QLT Inc., priority 2002, published 2006).

Columns and labels:
Type in all cases: cell-based
[1] = tested on: PC3 cells, PTPN12 mouse embryonic fibroblasts (MEFs); assay: Cell migration in a Boyden chamber; details: PC-3, cell line of Table 2 not stated
From the text: A range of cell lines are used in this assay, particularly the prostate cancer cell line PC3 and PTPN12 mouse embryonic fibroblasts (MEFs). The role of PTPN12 in migration was established based on the observations of PTPN12 negative MEFs. Cell adhesion and migration are dynamic biological activities involving the assembly and disassembly of a large number of extracellular and intracellular molecules, for example, actin, which are regulated in turn by protein phosphorylation. […] Migration is reduced in PTPN12 knock-out MEFs. By extension, a PTPN12 inhibitor should reduce cell migration in a Boyden chamber. Therefore, as a readout for PTPN12 activity, the following assay is designed to analyze cell migration in Boyden chambers. […]
For tumour cell lines, stock cells (i.e. PC3 cells) are grown to 50-70% confluency in T175 flasks. […] Fluorescence of migrated cells is read in a Fluoroskan Ascent FL™ (or equivalent) with bottom reading at excitation/emission wavelength of 485/538 nm. Only those cells that have migrated through the pores of the FluoroBlok™ membrane will be read. […]
Data is expressed as fluorescence unit (FU) from the sum of middle 25 areas per 24-well or as percentage of migration inhibition by following formula: % of invasion inhibition=100−FU of compound treated cell invasion/FU of DMSO treated cell invasion times 100. […]

[2] = tested on: H460 Cells; assay: Cell proliferation (3H-thymidine incorporation), H460; details: Homo sapiens, NCI-H460, 24 hours
From the text: (§1) This procedure (Jelinkova, R. B. et al., “Antiproliferative effect of a lectin- and anti-Thy-1.2 antibody-targeted HPMA copolymer-bound doxorubicin on primary and metastatic human colorectal carcinoma and on human colorectal carcinoma transfected with the mouse Thy-1.2 gene”, Bioconjug. Chem. (2000, September-October), Vol. 11, No. 5, pp. 664-73) is used to assess the effect compounds have on various cell lines with respect to proliferation. The rate of anchorage-independent growth of various tumor cells is quantified by measuring the amount of free isotopic thymidine that has been incorporated into the cells over a period of time. The effect of any compound to inhibit the proliferation of various tumor cells could be used as an indication of its ability to prevent disease progression in cancer.
(§2) Cultured tumour cells are harvested cells as per normal procedures: i.e. trypsinize, centrifuge and count cells. […]
(§3) After incubation, plates are observed under the microscope for obvious cell death, abnormal cell shape, crystal formation of the compound, etc. […] Finally, 100 μL of scintillation fluid is added to each well and the plates are counted in a Wallac 1450 Microbeta™ counter according to user manual instructions.
(§4) The amount of inhibition is determined by the following formula: % inhibition=100−[(AVG treatment−AVG positive control)/[…]]

[3] = tested on: PC3 Cells; assay: Cell proliferation (3H-thymidine incorporation), PC3; details: Homo sapiens, PC-3, 24 hours
From the text: as §1, §2, §3, §4

With `S=C1NC(=S)C(=Cc2ccc(-c3ccc(Br)cc3)o2)S1` [5-[5-(4-Bromophenyl)-furan-2-ylmethylene]-thiazolidine-2,4-dithione] the inhibition at 25 µM [1] was 65%, the inhibition at 50 µM [2] was 89% and the inhibition at 50 µM [3] was 15%.
